Values joined by “and” are separate entries in the source; they are usually repeats but may differ in a detail not shown here. Equal values may be shown once. Inconclusive results are not listed. Active and inactive are the calls of the source. The rule behind the calls is not given here.
Tested on: Toxoplasma gondii growth in host cells, no IFN-gamma
Assay: compound activity on host-cell Toxoplasma growth – dose response (AID 1259420);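 note: host cells were HeLa; final incubation lasted 72 hours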

| Compound | AC50 |
| --- | --- |
| COc1ccccc1-c1ccc2c(c1)[C@H]1[C@H](CCN1C(=O)C1CCC1)[C@H](CO)N2 | 13 µM |
| CCOC(=O)N1CCC(N[C@H]2COC[C@@H]2OCC)CC1 | 36.8 µM |
| Nc1ncnc2c1ncn2[C@@H]1O[C@H](C[C@@H](N)CC[C@H](N)C(=O)O)[C@@H](O)[C@H]1O | 1.38 µM |
| C[C@H]1CN([C@@H](C)CO)C(=O)c2cccc(NS(=O)(=O)c3ccc(F)cc3)c2O[C@H]1CN(C)Cc1ccc(Cl)c(Cl)c1 | 17.6 µM |
| COc1ccccc1CN1CC[C@@H]2[C@H]1c1cc(-c3cccc(C(=O)N(C)C)c3)ccc1N[C@@H]2CO | 20.2 µM |
| OC[C@H]1[C@@H](c2ccc(C#Cc3ccccc3F)cc2)[C@@H]2CN(CC3CCOCC3)CCCCN12 | 14.8 µM |
| Cc1ccc(Nc2nc(N)nc(CN3CCc4ccccc4C3)n2)cc1 | > 10 µM (inactive) |
| COc1ccccc1-c1ccc2c(c1)[C@@H]1[C@@H](CCN1S(=O)(=O)c1ccc(C)cc1)[C@H](CO)N2 | 12.4 µM |
| COc1ccccc1NC(=O)N1C[C@H](O)COC[C@@H]2O[C@H](CC(=O)N3CCC(Cc4ccccc4)CC3)CC[C@H]21 | 37.7 µM |
| CCN1C[C@@H](COC)[C@]2(CCN(C(=O)COc3ccccc3C)C2)C1 | > 39 µM (inactive) |
| CC(C)C#Cc1ccc([C@@H]2[C@@H](CO)N(C(=O)c3cccc(F)c3)[C@H]2C#N)cc1 | > 20 µM (inactive) |
| COc1ccc(-c2nc(N3CCC(N4CCCCC4)CC3)c3ccccc3n2)cc1 | > 39 µM (inactive) |
| CCCCCCC(C)(C)c1ccc(C2CC(O)CCC2CCCO)c(O)c1 (stereo not given) | 17.9 µM |
| CC(C)C#Cc1ccc([C@H]2[C@@H](CO)N3C(=O)CN(S(=O)(=O)c4ccccc4)C[C@H]23)cc1 | > 39 µM (inactive) |
| CCc1cnc(N2[C@H](C#N)[C@@H](c3ccc(C#Cc4ccccc4F)cc3)[C@@H]2CO)s1 | 16.3 µM |
| O=C(C1CCC1)N1C[C@@H]2N[C@H](C1)C2c1ccc(/C=C/c2ccccc2)cc1 (stereo not given in full) | 12.7 µM and 11.5 µM |
| Cc1nc2ccccn2c1CN(C)Cc1cnn(-c2ccccc2)c1 | 12.2 µM |
| COc1ccccc1CN1CC[C@@H]2[C@H](CO)Nc3ccc(-c4cccc(C(=O)N(C)C)c4)cc3[C@@H]21 | 13.6 µM |
| CCc1cnc(N2[C@H](C#N)[C@H](c3ccc(-c4cccc(F)c4)cc3)[C@H]2CO)s1 | 22.6 µM |
| O=C(C[C@H]1CC[C@H]2[C@@H](COC[C@H](O)CN2Cc2ccc(Oc3ccccc3)cc2)O1)N1CCN(c2ccccc2)CC1 | 27.6 µM |
| CO[C@@H]1[C@@H](OC(N)=O)[C@@H](O)[C@H](Oc2ccc3c(O)c(NC(=O)c4ccc(O)c(CC=C(C)C)c4)c(=O)oc3c2C)OC1(C)C | 18 µM |
| CCCNC(=O)N1[C@H](C#N)[C@@H](c2ccc(-c3ccccc3F)cc2)[C@H]1CO | 31.9 µM |

| Compound | AC50 |
| --- | --- |
| O=S(=O)(c1cccs1)N1CCCCN2[C@H](CO)[C@H](c3ccc(/C=C/c4ccccc4)cc3)[C@@H]2C1 | 29 µM |
| Cc1cccc(-c2ccc([C@@H]3[C@H](CO)N4CCCCN(S(=O)(=O)c5ccccc5F)C[C@@H]34)cc2)c1 | 19.7 µM |
| COc1cccc(S(=O)(=O)N2CCCCN3[C@H](CO)[C@H](c4ccc(C#CC5CC5)cc4)[C@H]3C2)c1 | 16.8 µM and 17 µM |
| Cc1ccc(C)c(S(=O)(=O)N2CCC3(CC2)c2ncc(-c4cccc(F)c4)n2CCN3C)c1 | > 20 µM (inactive) |
| O=C(Cc1ccccc1)N1CC[C@H]2[C@H](CO)Nc3ccc(C4=CCCCC4)cc3[C@H]21 | 13.9 µM |
| Cc1ccccc1S(=O)(=O)N1C[C@@H]2N[C@H](C1)C2c1ccc(-c2cccc(C#N)c2)cc1 (stereo not given in full) | 13.3 µM and 14.8 µM and 31.3 µM |
| C[C@@H]1CN([C@@H](C)CO)C(=O)c2cccc(NC(=O)NC3CCCCC3)c2O[C@@H]1CN(C)Cc1ccc(C(F)(F)F)cc1 | > 39 µM (inactive) |
| COc1cccc(S(=O)(=O)N2CCCCN3[C@H](C2)[C@H](c2ccc(C#CCC(C)C)cc2)[C@@H]3CO)c1 | 11.9 µM and 15.5 µM |
| Cc1cccc(OCC(=O)N2CCC3(CC2)Nc2ccc(Cl)cc2-n2cccc23)c1 | 13.7 µM |
| COc1ccc(-c2nc3c(s2)CN(S(=O)(=O)c2ccccc2C)CC3)cc1 | 8.96 µM |
| C/C=C/c1ccc(C2[C@@H]3CN(S(=O)(=O)c4ccccc4F)C[C@H]2N3)cc1 (stereo not given in full) | 20.7 µM |
| CN(C)C(=O)c1ccc(-c2ccc3c(c2)[C@H]2[C@H](CCN2C(=O)C2CCCC2)[C@@H](CO)N3C)cc1 | 14.6 µM |
| COCCN1CCc2c(cnc(-c3cccnc3)c2C(=O)O)C1 | > 39 µM (inactive) |
| Cc1cnc(N2CCC3(CCC(CC(=O)N4CC=CC4)CC3)CC2)nc1 | 22.6 µM |
| COc1cccc(NC(=O)N2CC(=O)N3[C@H](C2)[C@H](c2ccc(C#CCC4CCCC4)cc2)[C@@H]3CO)c1 | 16.9 µM |
| O=C(c1cnccn1)N1CC(=O)N2[C@H](CO)[C@@H](c3ccc(-c4cccc(F)c4)cc3)[C@@H]2C1 | 20 µM |
| COc1cc(N2CCO[C@H]3[C@@H](Oc4ncccc4F)CC[C@H]32)ncn1 | 6.3 µM |
| CN(C)C(=O)c1cccc(-c2ccc3c(c2)[C@@H]2[C@@H](CCN2C(=O)Cc2ccccc2)[C@@H](CO)N3)c1 | 21.7 µM |
| CC(C)(Cc1ccc2ccccc2c1)NC[C@@H](O)COc1cccc(Cl)c1C#N | 12.3 µM |
| COc1cccc(S(=O)(=O)N2CCCCN3[C@H](CO)[C@@H](c4ccc(C#CCC(C)C)cc4)[C@@H]3C2)c1 | 19 µM |
| O=S(=O)(c1ccccc1)N(CC(F)(F)F)c1ccc(C(O)(C(F)(F)F)C(F)(F)F)cc1 | 14.2 µM |
| COc1ccccc1-c1nc(CN2CCc3c(sc4c3CCCC4)C2c2ccccc2)c(C)o1 (stereo not given) | 22.4 µM |

| Compound | AC50 |
| --- | --- |
| CC(C)CC#Cc1ccc([C@@H]2[C@@H](CO)N3CCCCN(C(=O)Nc4ccccc4)C[C@H]23)cc1 | 15.9 µM |
| N#Cc1ccc(-c2ccc([C@H]3[C@@H](CO)N4C(=O)CNC[C@@H]34)cc2)cc1 | > 39 µM (inactive) |
| C=CCN1C(=O)COC2(CCN(Cc3ccc(C)s3)CC2)C1C (stereo not given) | > 39 µM (inactive) |
| O=C(Nc1cccc(F)c1)N1CCCCN2[C@H](CO)[C@H](c3ccc(C#Cc4cccnc4)cc3)[C@@H]2C1 | 1.34 µM and 2.47 µM |
| COc1ccccc1C1CN(Cc2cccc(O)c2)Cc2ccccc2O1 (stereo not given) | 22.8 µM |
| CN1CCC2(C=C(C(=O)N3CCCC3)c3ccccc32)CC1 | > 39 µM (inactive) |
| COc1cccc(S(=O)(=O)N2CCCCN3[C@@H](CO)[C@H](c4ccc(C#CCC(C)C)cc4)[C@@H]3C2)c1 | 21.4 µM and 16.4 µM and 30.4 µM |
| Cc1cc(C(=O)Nc2ccc3c(c2)C(=O)N(C)[C@H]2CC[C@H](CC(=O)NCc4ccc(-c5ccccc5)cc4)O[C@H]2CO3)no1 | 14 µM |
| O=C(Nc1cccc(F)c1)N1CCCCN2[C@H](CO)[C@@H](c3ccc(C#Cc4cccnc4)cc3)[C@H]2C1 | 23.6 µM |
| C/C=C/c1ccc(C2[C@H]3CNC[C@@H]2N3C(=O)NC2CCCCC2)cc1 (stereo not given in full) | 13.3 µM |
| O=C(NC1CCCCC1)N1C[C@@H]2N[C@H](C1)C2c1ccc(-c2ccc(F)cc2)cc1 (stereo not given in full) | 23 µM |
| CN1c2ccc(-c3ccc(C#N)cc3)cc2[C@@H]2[C@@H](CCN2S(=O)(=O)c2ccc(F)cc2)[C@@H]1CO | 13 µM |
| Cc1ccc(S(=O)(=O)N2C[C@H](O)COC[C@@H]3O[C@H](CC(=O)NCc4ccc5c(c4)OCO5)CC[C@H]32)cc1 | > 39 µM (inactive) |
| Cc1ccccc1-c1ccc([C@H]2[C@@H](CO)N3CCCCN(S(=O)(=O)Cc4ccccc4)C[C@H]23)cc1 | 22.7 µM |
| CCCC(Nc1nc(-c2cccnc2)nc2c1cnn2C)c1cccs1 (stereo not given) | > 39 µM (inactive) |
| CCCNC(=O)N1[C@H](C#N)[C@H](c2ccc(-c3ccccc3F)cc2)[C@H]1CO | 11.3 µM |
| N#C[C@@H]1[C@@H](c2ccc(-c3cccc(F)c3)cc2)[C@H](CO)N1C(=O)NC1CCCC1 | > 20 µM (inactive) |
| CC(C)NC(=O)N1CC[C@@H]2[C@H]1c1cc(-c3ccc(F)cc3)ccc1N(C)[C@@H]2CO | > 20 µM (inactive) |
| c1csc(-c2cc(NC3CCNCC3)nc3[nH]ccc23)n1 | 37 µM |
| Cc1ccn(CCNc2nccc(-c3c(C)nn(C)c3C)n2)n1 | > 39 µM (inactive) |
| C[C@H](O[C@H]1OCCN(Cc2n[nH]c(=O)[nH]2)[C@H]1c1ccc(F)cc1)c1cc(C(F)(F)F)cc(C(F)(F)F)c1 | 21.5 µM |
| Cc1ccc(S(=O)(=O)Nc2ccc3c(c2)C(=O)N([C@@H](C)CO)C[C@@H](C)[C@H](CN(C)Cc2ccc(C(F)(F)F)cc2)O3)cc1 | > 20 µM (inactive) |

| Compound | AC50 |
| --- | --- |
| Cc1cccc(-c2nc(CN(c3ccccc3)S(=O)(=O)c3ccccc3)c(C)o2)c1 | 17.4 µM |
| COc1cccc(-c2nc3c(s2)CN(S(=O)(=O)c2ccccc2C)CC3)c1 | 34.7 µM |
| Cc1ccccc1-c1ccc(C2[C@H]3CNC[C@@H]2N3Cc2ccc3c(c2)OCO3)cc1 (stereo not given in full) | > 20 µM (inactive) |
| COc1ccc(-c2ccc([C@@H]3[C@@H](CO)N4C(=O)CN(Cc5ccccc5)C[C@H]34)cc2)cc1 | > 39 µM (inactive) |
| COc1ccc(-c2ccc3c(c2)[C@H]2[C@H](CCN2C(=O)c2cccc(F)c2)[C@H](CO)N3)cc1 | 14.3 µM |
| Cc1ccccc1CN1C[C@@H]2c3nc(N4CCCC(C)C4)ncc3CS(=O)(=O)[C@H]2C1 (stereo not given in full) | 28.2 µM |
| COc1ccc(S(=O)(=O)N2CCCCN3[C@H](CO)[C@@H](c4ccc(C#CCC(C)C)cc4)[C@H]3C2)cc1 | 12.8 µM and 7.95 µM |
| C[C@H](CO)N1C[C@H](C)[C@H](CN(C)C(=O)Nc2ccc(C(F)(F)F)cc2)Oc2c(NC(=O)c3ccc(-c4nccs4)cc3)cccc2C1=O | 9.48 µM |
| Cc1ccccc1C(=O)N1CCC(N2CCOCC2)CC1C(=O)O (stereo not given) | > 39 µM (inactive) |
| COc1cccc(CN2CCCCN3[C@@H](CO)[C@@H](c4ccc(-c5ccccc5OC)cc4)[C@@H]3C2)c1 | 15.7 µM |
| COCC#Cc1ccc([C@@H]2[C@H]3CN(C(=O)C4CCCCC4)CC(=O)N3[C@H]2CO)cc1 | > 39 µM (inactive) |
| CCCNC(=O)N1C[C@@H]2N[C@H](C1)C2c1ccc(-c2ccc(OC)cc2)cc1 (stereo not given in full) | 14.2 µM |
| O=C1CC(c2ccncc2)C2(CCN(Cc3nccs3)CC2)N1 (stereo not given) | > 39 µM (inactive) |
| OC(c1cc(C(F)(F)F)nc2c(C(F)(F)F)cccc12)C1CCCCN1 (stereo not given) | 20.4 µM |
| O=c1c(O)c(-c2ccc(O)c(O)c2)oc2cc(O)cc(O)c12 | 15.8 µM |
| COCC(=O)N1[C@@H](C#N)[C@H](c2ccc(C#CCC3CCCC3)cc2)[C@@H]1CO | 18.7 µM |
| CN1C(=O)c2cc(NC(=O)Cc3cccs3)ccc2OC[C@H]2O[C@H](CC(=O)NCc3ccc(-c4ccccc4)cc3)CC[C@@H]21 | 29.4 µM |
| N#Cc1cccc(-c2ccc(C3[C@@H]4CN(C(=O)Nc5ccc(C(F)(F)F)cc5)C[C@H]3N4)cc2)c1 (stereo not given in full) | 14.4 µM and 14.6 µM |
| CC(C)C#Cc1ccc([C@@H]2[C@H]3CN(C(=O)NC4CCCC4)CC(=O)N3[C@H]2CO)cc1 | > 39 µM (inactive) |

From PubChem BioAssay AID1259420 (Broad Institute, 2018)
